Assay results as given in PMC4685510, “A Cell Biologist’s Field Guide to Aurora Kinase Inhibitors” (Frontiers in Oncology, 2015).
Like-named read-outs stand apart in the source and are kept apart here.

Key:
Test in all cases: biochemical
Type in all cases: biochemical
[1] = molecular target: 363 human kinases (including Aurora A/B/C) (Homo sapiens, UniProt Q6P2M8); details: CAMK1b, [ATP] 5 µM; for remaining activity at 0.1 µM: 100 nM; for remaining activity at 0.1 µM / remaining activity at 0.5 µM: read-out: % Enzyme Activity (relative to DMSO controls)
Source text: (§1) However, the Aurora A/B selectivity ratios derived from our in vitro and in vivo data can be compared to prioritize inhibitors.

[2] = molecular target: 363 human kinases (including Aurora A/B/C) (Homo sapiens, UniProt O00311); details: CDC7/DBF4, [ATP] 15 µM; for remaining activity at 0.1 µM: 100 nM; for remaining activity at 0.1 µM / remaining activity at 0.5 µM: read-out: % Enzyme Activity (relative to DMSO controls)
Source text: as §1

[3] = molecular target: 363 human kinases (including Aurora A/B/C) (Homo sapiens, UniProt P50750); details: [ATP] 10 µM; for remaining activity at 0.1 µM: 100 nM; for remaining activity at 0.1 µM / remaining activity at 0.5 µM: read-out: % Enzyme Activity (relative to DMSO controls); for remaining activity at 0.5 µM / % Enzyme Activity (relative to DMSO controls): 500 nM
Source text: as §1

[4] = molecular target: T1, 363 human kinases (including Aurora A/B/C) (Homo sapiens, UniProt O14733); details: MKK7; for remaining activity at 0.1 µM: 100 nM; for remaining activity at 0.1 µM / remaining activity at 0.5 µM: read-out: % Enzyme Activity (relative to DMSO controls)
T1 sequence (O14733 1-419): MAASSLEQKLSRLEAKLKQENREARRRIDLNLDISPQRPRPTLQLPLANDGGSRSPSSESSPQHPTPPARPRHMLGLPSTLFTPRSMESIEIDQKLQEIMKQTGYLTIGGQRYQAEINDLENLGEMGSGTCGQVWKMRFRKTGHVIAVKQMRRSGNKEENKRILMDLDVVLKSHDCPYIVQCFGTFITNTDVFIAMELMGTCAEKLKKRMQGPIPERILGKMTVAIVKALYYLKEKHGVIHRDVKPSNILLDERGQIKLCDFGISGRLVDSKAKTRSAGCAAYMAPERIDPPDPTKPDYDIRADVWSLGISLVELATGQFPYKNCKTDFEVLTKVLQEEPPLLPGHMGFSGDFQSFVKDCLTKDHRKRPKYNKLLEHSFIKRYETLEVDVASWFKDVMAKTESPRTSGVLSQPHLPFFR
Source text: as §1

[5] = molecular target: T2, 363 human kinases (including Aurora A/B/C) (Homo sapiens, UniProt P42680); details: TEC; for remaining activity at 0.1 µM: 100 nM; for remaining activity at 0.1 µM / remaining activity at 0.5 µM: read-out: % Enzyme Activity (relative to DMSO controls)
T2 sequence (P42680 1-631): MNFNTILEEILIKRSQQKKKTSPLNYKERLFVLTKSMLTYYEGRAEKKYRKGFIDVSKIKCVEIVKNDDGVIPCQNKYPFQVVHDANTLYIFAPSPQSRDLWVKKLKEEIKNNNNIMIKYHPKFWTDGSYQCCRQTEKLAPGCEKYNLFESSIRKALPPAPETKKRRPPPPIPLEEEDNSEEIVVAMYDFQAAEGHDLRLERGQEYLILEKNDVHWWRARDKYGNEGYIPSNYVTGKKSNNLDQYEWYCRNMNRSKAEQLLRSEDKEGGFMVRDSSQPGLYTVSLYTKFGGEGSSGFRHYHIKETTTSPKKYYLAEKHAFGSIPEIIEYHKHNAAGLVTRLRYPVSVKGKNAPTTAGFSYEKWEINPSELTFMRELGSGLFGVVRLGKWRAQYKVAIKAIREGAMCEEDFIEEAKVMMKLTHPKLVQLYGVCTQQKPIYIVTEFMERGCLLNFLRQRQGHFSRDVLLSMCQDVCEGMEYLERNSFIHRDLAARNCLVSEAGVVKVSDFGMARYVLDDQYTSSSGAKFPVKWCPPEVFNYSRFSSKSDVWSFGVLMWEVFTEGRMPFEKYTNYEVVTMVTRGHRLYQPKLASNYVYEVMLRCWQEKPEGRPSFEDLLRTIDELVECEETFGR
Source text: as §1

[6] = molecular target: T3, 363 human kinases (including Aurora A/B/C) (Homo sapiens, UniProt Q9UL54); details: TAOK2/TAO1; for remaining activity at 0.1 µM: 100 nM; for remaining activity at 0.1 µM / remaining activity at 0.5 µM: read-out: % Enzyme Activity (relative to DMSO controls)
T3 sequence (Q9UL54 1-1235): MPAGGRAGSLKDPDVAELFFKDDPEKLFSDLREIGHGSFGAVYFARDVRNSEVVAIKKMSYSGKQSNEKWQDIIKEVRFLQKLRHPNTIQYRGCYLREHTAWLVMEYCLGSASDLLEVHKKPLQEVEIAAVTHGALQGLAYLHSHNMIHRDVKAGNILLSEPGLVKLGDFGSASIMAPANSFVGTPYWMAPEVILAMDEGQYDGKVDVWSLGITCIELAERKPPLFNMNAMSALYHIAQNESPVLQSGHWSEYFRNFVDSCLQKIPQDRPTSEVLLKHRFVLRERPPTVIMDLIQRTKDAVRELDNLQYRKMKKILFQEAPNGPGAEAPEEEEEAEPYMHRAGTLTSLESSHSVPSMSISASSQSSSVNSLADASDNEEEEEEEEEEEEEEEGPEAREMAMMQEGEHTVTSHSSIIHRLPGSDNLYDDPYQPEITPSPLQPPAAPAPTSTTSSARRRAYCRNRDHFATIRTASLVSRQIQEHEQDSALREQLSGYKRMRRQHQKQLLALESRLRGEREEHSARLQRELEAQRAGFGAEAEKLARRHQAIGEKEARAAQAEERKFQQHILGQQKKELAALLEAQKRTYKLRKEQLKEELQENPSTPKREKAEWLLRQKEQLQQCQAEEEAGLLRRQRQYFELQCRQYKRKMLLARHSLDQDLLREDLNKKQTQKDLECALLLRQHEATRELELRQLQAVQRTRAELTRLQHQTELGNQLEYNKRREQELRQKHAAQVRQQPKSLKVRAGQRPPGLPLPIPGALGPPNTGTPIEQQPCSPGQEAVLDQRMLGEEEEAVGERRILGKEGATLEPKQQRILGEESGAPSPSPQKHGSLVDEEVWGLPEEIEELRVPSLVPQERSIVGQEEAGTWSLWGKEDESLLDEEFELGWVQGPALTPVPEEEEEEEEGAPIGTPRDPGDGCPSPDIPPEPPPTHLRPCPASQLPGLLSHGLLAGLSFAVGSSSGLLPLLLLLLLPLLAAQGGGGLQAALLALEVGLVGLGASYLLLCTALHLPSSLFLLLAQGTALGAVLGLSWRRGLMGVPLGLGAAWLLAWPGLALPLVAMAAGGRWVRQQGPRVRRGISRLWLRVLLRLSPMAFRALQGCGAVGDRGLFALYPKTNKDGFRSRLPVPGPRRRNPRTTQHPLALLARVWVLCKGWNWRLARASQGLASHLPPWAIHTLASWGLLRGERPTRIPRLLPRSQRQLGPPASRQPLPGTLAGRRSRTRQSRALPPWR
Source text: as §1

[7] = molecular target: 363 human kinases (including Aurora A/B/C) (Homo sapiens, UniProt P51451); details: BLK, [ATP] 10 µM; for remaining activity at 0.1 µM: 100 nM; for remaining activity at 0.1 µM / remaining activity at 0.5 µM: read-out: % Enzyme Activity (relative to DMSO controls)
Chain of 363 human kinases (including Aurora A/B/C) (Homo sapiens, UniProt P51451) (P51451 whole entry): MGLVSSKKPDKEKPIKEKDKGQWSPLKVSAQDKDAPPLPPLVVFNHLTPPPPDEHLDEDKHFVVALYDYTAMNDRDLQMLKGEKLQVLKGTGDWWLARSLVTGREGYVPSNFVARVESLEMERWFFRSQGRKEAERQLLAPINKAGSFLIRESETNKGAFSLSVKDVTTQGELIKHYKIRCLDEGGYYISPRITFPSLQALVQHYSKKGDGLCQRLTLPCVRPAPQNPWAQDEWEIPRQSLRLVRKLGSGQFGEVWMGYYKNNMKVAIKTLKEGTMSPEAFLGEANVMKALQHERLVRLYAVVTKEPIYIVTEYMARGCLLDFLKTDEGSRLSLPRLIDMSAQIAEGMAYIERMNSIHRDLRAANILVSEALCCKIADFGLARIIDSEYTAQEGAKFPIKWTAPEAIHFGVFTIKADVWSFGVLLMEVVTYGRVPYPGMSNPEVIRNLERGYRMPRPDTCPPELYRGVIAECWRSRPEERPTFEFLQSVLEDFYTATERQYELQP
Source text: as §1

Chain of 363 human kinases (including Aurora A/B/C) (Homo sapiens, UniProt Q6P2M8) (Q6P2M8 whole entry): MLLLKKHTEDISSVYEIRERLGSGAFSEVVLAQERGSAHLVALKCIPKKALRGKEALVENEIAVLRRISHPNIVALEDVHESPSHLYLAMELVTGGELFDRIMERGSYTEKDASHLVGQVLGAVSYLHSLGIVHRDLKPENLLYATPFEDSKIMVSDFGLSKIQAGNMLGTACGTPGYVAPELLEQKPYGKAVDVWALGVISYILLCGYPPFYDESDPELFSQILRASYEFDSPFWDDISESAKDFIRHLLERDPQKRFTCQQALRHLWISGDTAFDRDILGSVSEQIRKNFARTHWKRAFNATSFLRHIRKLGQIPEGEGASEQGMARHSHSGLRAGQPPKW
Chain of 363 human kinases (including Aurora A/B/C) (Homo sapiens, UniProt P50750) (P50750 whole entry): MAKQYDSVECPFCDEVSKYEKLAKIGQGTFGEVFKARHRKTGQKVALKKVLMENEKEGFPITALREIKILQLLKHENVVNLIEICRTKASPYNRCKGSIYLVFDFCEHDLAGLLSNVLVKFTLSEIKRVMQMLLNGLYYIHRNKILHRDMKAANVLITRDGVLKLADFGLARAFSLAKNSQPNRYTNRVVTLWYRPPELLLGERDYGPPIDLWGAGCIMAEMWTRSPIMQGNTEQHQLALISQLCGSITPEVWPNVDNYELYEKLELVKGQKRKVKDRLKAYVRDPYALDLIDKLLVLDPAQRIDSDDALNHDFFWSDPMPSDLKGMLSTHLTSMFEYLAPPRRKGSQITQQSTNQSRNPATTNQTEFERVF
Chain of 363 human kinases (including Aurora A/B/C) (Homo sapiens, UniProt O00311) (O00311 whole entry): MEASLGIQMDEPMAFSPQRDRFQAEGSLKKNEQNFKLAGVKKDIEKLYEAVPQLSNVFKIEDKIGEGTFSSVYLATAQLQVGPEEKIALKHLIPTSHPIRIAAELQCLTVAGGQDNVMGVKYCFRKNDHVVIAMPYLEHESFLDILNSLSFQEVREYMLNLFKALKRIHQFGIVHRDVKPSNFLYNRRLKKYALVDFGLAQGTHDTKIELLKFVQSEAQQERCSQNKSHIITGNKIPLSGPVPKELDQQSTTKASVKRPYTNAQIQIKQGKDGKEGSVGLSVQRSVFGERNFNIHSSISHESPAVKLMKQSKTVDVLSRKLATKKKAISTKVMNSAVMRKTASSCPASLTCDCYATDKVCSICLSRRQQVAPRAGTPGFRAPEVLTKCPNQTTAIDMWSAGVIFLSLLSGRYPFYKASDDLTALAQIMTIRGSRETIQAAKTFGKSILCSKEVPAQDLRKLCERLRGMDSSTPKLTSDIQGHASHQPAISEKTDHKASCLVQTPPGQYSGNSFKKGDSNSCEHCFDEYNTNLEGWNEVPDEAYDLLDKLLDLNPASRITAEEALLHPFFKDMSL

Compound: CCn1cc(-c2ccnc3[nH]c(-c4cccc(CN(C)C)c4)cc23)c(-c2ccc(NC(=O)N(C)C)cc2)n1 [GSK1070916]
- remaining activity at 0.1 µM [1]: 99.4%
- remaining activity at 0.1 µM [2]: 95.4%
- remaining activity at 0.1 µM ([3]; CDK9/cyclin K): 102%
- remaining activity at 0.1 µM ([3]; CDK9/cyclin T1): 91.5%
- remaining activity at 0.1 µM [4]: 95.4%
- remaining activity at 0.1 µM [5]: 100%
- remaining activity at 0.1 µM [6]: 92.6%
- remaining activity at 0.1 µM [7]: 85%

Compound: O=C(O)[C@]1(Cc2cccc(Nc3nccs3)n2)CC[C@@H](Oc2cccc(Cl)c2F)CC1 [MK-5108]
- remaining activity at 0.1 µM [1]: 89.2%
- remaining activity at 0.5 µM ([1]; 500 nM): 102%
- remaining activity at 0.1 µM [2]: 103%
- remaining activity at 0.5 µM ([2]; 500 nM): 96.2%
- remaining activity at 0.1 µM ([3]; CDK9/cyclin K): 94%
- remaining activity at 0.5 µM ([3]; CDK9/cyclin K): 106%
- remaining activity at 0.1 µM ([3]; CDK9/cyclin T1): 124%
- remaining activity at 0.5 µM ([3]; CDK9/cyclin T1): 115%
- remaining activity at 0.1 µM [4]: 99.5%
- remaining activity at 0.5 µM ([4]; 500 nM): 101%
- remaining activity at 0.1 µM [5]: 68.8%
- remaining activity at 0.5 µM ([5]; 500 nM): 40.6%
- remaining activity at 0.1 µM [6]: 97.5%
- remaining activity at 0.5 µM ([6]; 500 nM): 78.1%
- remaining activity at 0.1 µM [7]: 54.8%
- remaining activity at 0.5 µM ([7]; 500 nM): 17.1%

Compound: O=C(c1cccc(Cl)c1F)N1CCN(Cc2cccc(Nc3nccs3)n2)CC1 [MK-8745]
- % Enzyme Activity (relative to DMSO controls) ([1]; 500 nM): 98.69%
- remaining activity at 0.5 µM ([1]; 500 nM): 100%
- % Enzyme Activity (relative to DMSO controls) ([2]; 500 nM): 101.19%
- remaining activity at 0.5 µM ([2]; 500 nM): 103%
- % Enzyme Activity (relative to DMSO controls) ([3]; CDK9/cyclin K): 108.88%
- remaining activity at 0.5 µM ([3]; CDK9/cyclin K): 109%
- % Enzyme Activity (relative to DMSO controls) ([3]; CDK9/cyclin T1): 190.89%
- remaining activity at 0.5 µM ([3]; CDK9/cyclin T1): 198%
- % Enzyme Activity (relative to DMSO controls) ([4]; 500 nM): 95.34%
- remaining activity at 0.5 µM ([4]; 500 nM): 98%
- % Enzyme Activity (relative to DMSO controls) ([5]; 500 nM): 100.04%
- remaining activity at 0.5 µM ([5]; 500 nM): 102%
- % Enzyme Activity (relative to DMSO controls) ([6]; 500 nM): 97.14%
- remaining activity at 0.5 µM ([6]; 500 nM): 97.6%
- % Enzyme Activity (relative to DMSO controls) ([7]; 500 nM): 72.45%
- remaining activity at 0.5 µM ([7]; 500 nM): 72.7%
